# From patent publication US10517889B2, “Modulators of SMAD7 expression” (Ionis Pharmaceuticals, Inc., priority 2017, dated 2019)
# Strand notation (5' to 3'): a small letter for the sugar, then the base; units joined by * are phosphorothioate-linked, units joined directly phosphodiester-linked; [ ] holds rarer units or linkages, { } end groups; capitals alone tell only the bases. e = 2'-O-(2-methoxyethyl) (MOE); [5mC] = 5-methylcytosine; d = 2'-deoxy (DNA)
# Test system: human SMAD7 mRNA
# Experiment: Antisense inhibition of human SMAD7 mRNA expression in Hep3B cells by 5-10-5 MOE gapmers, single concentration, electroporation, RT-PCR (Example 1, Study 1 and 2)
# Type: cell-based
# Settings: Study 2, electroporation with 15,000 nM antisense oligonucleotide, 5-10-5 MOE gapmers targeting SEQ ID NO: 1 and 2
# In short: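 Hep3B cells (20,000/well) electroporated with 5-10-5 MOE gapmer at 5,000 nM or 15,000 nM for approximately 24 h. SMAD7 mRNA quantified by real-time PCR with primer probe set RTS5062 and normalized to RIBOGREEN total RNA. Values are percent inhibition relative to untreated controls.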
row,Substance,% inhibition of SMAD7 mRNA expression
1,771477 (antisense eT*eG*e[5mC]*eG*eG*dT*dT*dG*dT*dA*d[5mC]*dA*d[5mC]*d[5mC]*d[5mC]*eA*e[5mC]*eA*e[5mC]*eA) [compound 771477],20%
2,771480 (antisense eA*eG*e[5mC]*e[5mC]*eT*dT*dG*dA*dT*dG*dG*dA*dG*dA*dA*eA*e[5mC]*e[5mC]*eG*eG) [compound 771480],46%
3,771485 (antisense eA*eA*eG*e[5mC]*e[5mC]*d[5mC]*dG*dT*d[5mC]*d[5mC]*dA*d[5mC]*dG*dG*d[5mC]*eT*eG*e[5mC]*eT*eG) [compound 771485],15%
4,771488 (antisense e[5mC]*eT*eG*eA*eT*d[5mC]*dT*dG*d[5mC]*dA*d[5mC]*dG*dG*dT*dA*eA*eA*eG*e[5mC]*e[5mC]) [compound 771488],53%
5,771493 (antisense e[5mC]*eG*eG*eG*e[5mC]*dA*dG*d[5mC]*dT*dG*d[5mC]*dT*dG*dA*dT*eG*eA*eA*e[5mC]*eT) [compound 771493],17%
6,771495 (antisense e[5mC]*eT*eA*eG*e[5mC]*d[5mC]*dA*dG*d[5mC]*dA*d[5mC]*dG*dG*dG*d[5mC]*eA*eG*e[5mC]*eT*eG) [compound 771495],18%
7,771496 (antisense eT*eG*eA*e[5mC]*e[5mC]*dT*d[5mC]*dT*dA*dG*d[5mC]*d[5mC]*dA*dG*d[5mC]*eA*e[5mC]*eG*eG*eG) [compound 771496],20%
8,771501 (antisense eG*e[5mC]*eA*e[5mC]*eG*d[5mC]*dG*dG*d[5mC]*dT*dA*d[5mC]*d[5mC]*dG*dG*e[5mC]*eT*eG*eT*eT) [compound 771501],16%
9,771503 (antisense eG*e[5mC]*eT*e[5mC]*eA*d[5mC]*dG*d[5mC]*dT*d[5mC]*dT*dG*dT*d[5mC]*d[5mC]*e[5mC]*e[5mC]*eT*e[5mC]*e[5mC]) [compound 771503],27%
10,771504 (antisense e[5mC]*eA*eG*e[5mC]*eT*d[5mC]*dA*d[5mC]*dG*d[5mC]*dT*d[5mC]*dT*dG*dT*e[5mC]*e[5mC]*e[5mC]*e[5mC]*eT) [compound 771504],48%
11,771508 (antisense e[5mC]*e[5mC]*eT*eG*e[5mC]*dT*d[5mC]*dA*dG*d[5mC]*dT*d[5mC]*dA*d[5mC]*dG*e[5mC]*eT*e[5mC]*eT*eG) [compound 771508],8%
12,771510 (antisense eA*eG*eT*eG*eT*dG*dG*d[5mC]*d[5mC]*dT*dG*d[5mC]*dT*d[5mC]*dA*eG*e[5mC]*eT*e[5mC]*eA) [compound 771510],35%
13,771511 (antisense eT*eT*eT*eG*eA*dA*dG*dT*dG*dT*dG*dG*d[5mC]*d[5mC]*dT*eG*e[5mC]*eT*e[5mC]*eA) [compound 771511],31%
14,771516 (antisense eG*eA*eG*eG*eA*dA*dA*dA*dT*dA*dT*dT*dA*dG*d[5mC]*eA*eG*e[5mC]*eA*eA) [compound 771516],8%
15,771518 (antisense eA*eA*eG*e[5mC]*eA*d[5mC]*dT*d[5mC]*dA*dG*dG*dA*dG*dG*dA*eA*eA*eA*eT*eA) [compound 771518],4%
16,771519 (antisense eA*eA*eA*eG*e[5mC]*dA*dA*dG*d[5mC]*dA*d[5mC]*dT*d[5mC]*dA*dG*eG*eA*eG*eG*eA) [compound 771519],25%
17,771524 (antisense eT*eT*eG*e[5mC]*eA*dT*dG*dA*dA*dA*dA*dG*d[5mC]*dA*dA*eG*e[5mC]*eA*e[5mC]*eT) [compound 771524],19%

# Same assay, conditions: electroporation with 15,000 nM antisense oligonucleotide (Study 2), 5-10-5 MOE gapmers targeting SEQ ID NO: 1 and 2
row,Substance,% Inhibition of SMAD7 mRNA
1,771481 (antisense eG*e[5mC]*eA*eG*eG*d[5mC]*dT*dG*dT*dA*d[5mC]*dG*d[5mC]*d[5mC]*dT*eT*e[5mC]*eT*e[5mC]*eG) [compound 771481],26%
2,771489 (antisense e[5mC]*eA*eA*eA*eG*d[5mC]*dT*dG*dA*dT*d[5mC]*dT*dG*d[5mC]*dA*e[5mC]*eG*eG*eT*eA) [compound 771489],34%
3,771497 (antisense eG*eA*eA*eG*eA*dT*dG*dA*d[5mC]*d[5mC]*dT*d[5mC]*dT*dA*dG*e[5mC]*e[5mC]*eA*eG*e[5mC]) [compound 771497],25%
4,771505 (antisense e[5mC]*eT*e[5mC]*eA*eG*d[5mC]*dT*d[5mC]*dA*d[5mC]*dG*d[5mC]*dT*d[5mC]*dT*eG*eT*e[5mC]*e[5mC]*e[5mC]) [compound 771505],29%
5,771512 (antisense eA*eG*eT*eA*eG*dT*dT*dT*dG*dA*dA*dG*dT*dG*dT*eG*eG*e[5mC]*e[5mC]*eT) [compound 771512],34%
6,771520 (antisense eA*eT*eG*eA*eA*dA*dA*dG*d[5mC]*dA*dA*dG*d[5mC]*dA*d[5mC]*eT*e[5mC]*eA*eG*eG) [compound 771520],37%

# Same assay, conditions: electroporation, 15,000 nM antisense oligonucleotide (Study 2), 5-10-5 MOE gapmers targeting SEQ ID NO: 1 and 2
row,Substance,% inhibition of SMAD7 mRNA expression
1,771475 (antisense e[5mC]*eG*eT*e[5mC]*eA*dG*d[5mC]*dT*dG*dG*dA*dT*dG*d[5mC]*d[5mC]*eG*e[5mC]*eA*eG*e[5mC]) [compound 771475],26%
2,771481 (antisense eG*e[5mC]*eA*eG*eG*d[5mC]*dT*dG*dT*dA*d[5mC]*dG*d[5mC]*d[5mC]*dT*eT*e[5mC]*eT*e[5mC]*eG) [compound 771481],0%
3,771482 (antisense e[5mC]*e[5mC]*eG*e[5mC]*eT*dG*d[5mC]*dA*dG*dG*d[5mC]*dT*dG*dT*dA*e[5mC]*eG*e[5mC]*e[5mC]*eT) [compound 771482],38%
4,771483 (antisense eA*e[5mC]*eG*eG*e[5mC]*dT*dG*d[5mC]*dT*dG*d[5mC]*dA*dT*dA*dA*eA*e[5mC]*eT*e[5mC]*eG) [compound 771483],22%
5,771489 (antisense e[5mC]*eA*eA*eA*eG*d[5mC]*dT*dG*dA*dT*d[5mC]*dT*dG*d[5mC]*dA*e[5mC]*eG*eG*eT*eA) [compound 771489],27%
6,771490 (antisense e[5mC]*eT*eT*e[5mC]*eA*d[5mC]*dA*dA*dA*dG*d[5mC]*dT*dG*dA*dT*e[5mC]*eT*eG*e[5mC]*eA) [compound 771490],44%
7,771491 (antisense eG*eG*e[5mC]*e[5mC]*e[5mC]*d[5mC]*dA*dG*d[5mC]*d[5mC]*d[5mC]*dT*dT*d[5mC]*dA*e[5mC]*eA*eA*eA*eG) [compound 771491],39%
8,771497 (antisense eG*eA*eA*eG*eA*dT*dG*dA*d[5mC]*d[5mC]*dT*d[5mC]*dT*dA*dG*e[5mC]*e[5mC]*eA*eG*e[5mC]) [compound 771497],0%
9,771498 (antisense e[5mC]*eT*eG*eT*eT*dG*dA*dA*dG*dA*dT*dG*dA*d[5mC]*d[5mC]*eT*e[5mC]*eT*eA*eG) [compound 771498],48%
10,771499 (antisense eG*e[5mC]*eT*eA*e[5mC]*d[5mC]*dG*dG*d[5mC]*dT*dG*dT*dT*dG*dA*eA*eG*eA*eT*eG) [compound 771499],1%
11,771505 (antisense e[5mC]*eT*e[5mC]*eA*eG*d[5mC]*dT*d[5mC]*dA*d[5mC]*dG*d[5mC]*dT*d[5mC]*dT*eG*eT*e[5mC]*e[5mC]*e[5mC]) [compound 771505],0%
12,771512 (antisense eA*eG*eT*eA*eG*dT*dT*dT*dG*dA*dA*dG*dT*dG*dT*eG*eG*e[5mC]*e[5mC]*eT) [compound 771512],0%
13,771513 (antisense eA*eG*e[5mC]*eA*eA*dA*dG*dT*dA*dG*dT*dT*dT*dG*dA*eA*eG*eT*eG*eT) [compound 771513],34%
14,771514 (antisense eT*eT*eA*eG*e[5mC]*dA*dG*d[5mC]*dA*dA*dA*dG*dT*dA*dG*eT*eT*eT*eG*eA) [compound 771514],19%
15,771520 (antisense eA*eT*eG*eA*eA*dA*dA*dG*d[5mC]*dA*dA*dG*d[5mC]*dA*d[5mC]*eT*e[5mC]*eA*eG*eG) [compound 771520],12%
16,771521 (antisense e[5mC]*eA*eT*eG*eA*dA*dA*dA*dG*d[5mC]*dA*dA*dG*d[5mC]*dA*e[5mC]*eT*e[5mC]*eA*eG) [compound 771521],33%
17,771522 (antisense eG*e[5mC]*eA*eT*eG*dA*dA*dA*dA*dG*d[5mC]*dA*dA*dG*d[5mC]*eA*e[5mC]*eT*e[5mC]*eA) [compound 771522],29%

# Same assay, conditions: electroporation, 15,000 nM, approximately 24 hours, relative to untreated control cells, gapmers targeting SEQ ID NO: 1 and 2
row,Substance,% inhibition of SMAD7 mRNA expression
1,771478 (antisense e[5mC]*eA*e[5mC]*e[5mC]*eT*dT*dG*dT*dG*dT*dA*d[5mC]*d[5mC]*dA*dA*e[5mC]*eA*eG*e[5mC]*eG) [compound 771478],53%
2,771486 (antisense e[5mC]*eG*eG*eT*eA*dA*dA*dG*d[5mC]*d[5mC]*d[5mC]*dG*dT*d[5mC]*d[5mC]*eA*e[5mC]*eG*eG*e[5mC]) [compound 771486],52%
3,771494 (antisense e[5mC]*eA*eG*e[5mC]*eA*d[5mC]*dG*dG*dG*d[5mC]*dA*dG*d[5mC]*dT*dG*e[5mC]*eT*eG*eA*eT) [compound 771494],20%
4,771502 (antisense e[5mC]*eG*e[5mC]*eT*e[5mC]*dT*dG*dT*d[5mC]*d[5mC]*d[5mC]*d[5mC]*dT*d[5mC]*d[5mC]*eG*e[5mC]*eA*e[5mC]*eG) [compound 771502],48%
5,771517 (antisense e[5mC]*eT*e[5mC]*eA*eG*dG*dA*dG*dG*dA*dA*dA*dA*dT*dA*eT*eT*eA*eG*e[5mC]) [compound 771517],25%
6,771525 (antisense eT*eT*eT*eG*e[5mC]*dA*dT*dG*dA*dA*dA*dA*dG*d[5mC]*dA*eA*eG*e[5mC]*eA*e[5mC]) [compound 771525],28%
